Measured values taken from patent US8471027B2, “Adamantyl compounds” (Hoffmann-La Roche Inc., priority 2011, dated 2013).

Tests used:
[1] = test system: phospho(Ser63)-c-jun in HK-2 cells; assay: Cell-based assay for JNK inhibitors: in-cell ELISA of TNFα-stimulated phospho(Ser63)-c-jun in HK-2 cells; details: Homo sapiens, 10 ng/mL TNFα, 60 min preincubation with compound
Experimental: Cell-Based Assay for JNK Inhibitors
The cell-based assay employed the in-cell ELISA method to determine the ability of compounds to prevent the generation of phospho(Ser63)-c-jun in HK-2 cells (human proximal tubule cells) in response to stimulation with tumor necrosis factor α (TNFα). In brief, for quantification of phospho(Ser63)-c-jun, the cells (in 96-well format) were fixed and permeablized then incubated sequentially with a rabbit anti-phospho-c-jun First Antibody specific for the presence of the phospho-Ser63 epitope and a donkey anti-rabbit IgG Second Antibody linked to horseradish peroxidase (HRP) for colorimetric quantitation of binding. For determination of non-specific binding of the First Antibody, Blank wells were preincubated with a mouse anti-phospho(Ser63)-c-jun Blocking Antibody that prevented specific binding of the First Antibody to the phospho-Ser63 epitope, but which was not recognized by the donkey anti-rabbit IgG Second Antibody. […] Blank wells received no TNFα stimulation or compound. Additional Control wells received TNFα stimulation, but no compound. The signal obtained in this case was considered the value for 0% inhibition (Control value).
Stock cultures of HK-2 cells (ATCC, Manassas, Va.) were grown under a 5% CO2/[…] atmosphere at 37 degrees C. in Keratinocyte-SFM medium (KSFM, Invitrogen, Grand Island, N.Y.) containing 5 μg/L epidermal growth factor and 5 mg/L bovine pituitary extract (both supplied with the medium), additionally supplemented with 10% (v/v) fetal calf serum (FCS; Invitrogen, Grand Island, N.Y.) and 1% (v/v) antibiotic-antimycotic (ABAM: Sigma, St. Louis, Mo.). For assays, cells were seeded in collagen coated 96-well polystyrene plates (BD Biosciences, Franklin Lakes, N.J.) at a density of 40,000 cells/well and cultured for 24 h in the same medium (100 μL/well) followed by a further 16-24 h in 100 μL of similar medium, but without FCS. […] Cells were incubated for a further 30 minutes and then the medium was aspirated and the wells washed with 100 μL/well PBS followed by the addition of 100 μL 3.7% (v/v) Formaldehyde (Fisher Scientific, Fair Lawn, N.J.) in PBS. Plates were then allowed to stand at room temperature for 20 minutes before being washed with 200 μL/well of PBS. (Further steps were performed immediately or the plates were stored at 4 degrees C. and the assay completed the next day.) To each well was added 100 μL 1% (v/v) TritonX-100 (Sigma, St. Louis, Mo.) in PBS followed by 20 minutes standing at room temperature, washing with 200 μL/well PBS, the addition of 100 μL/well of Quenching buffer (1% (v/v) hydrogen peroxide (Sigma, St. Louis, Mo.) and 0.1% (w/v) sodium azide (Fisher Scientific, Fair Lawn, N.J.)) in PBS and a further 20 minutes at room temperature. Plates were then washed twice with 200 μL/well of 0.1% (v/v) Tween-20 (Teknova, Hollister, Calif.) in PBS before addition of 200 μL/well of 2% BSA/0.10% Tween-20 in PBS and a further 1 hour at room temperature. At this time, buffer was removed from Blank wells and replaced with 90 μL/well of mouse anti-phospho-c-jun-Ser63 (BD Bioscience, 558036) diluted 1:4000 in PBS containing 1% BSA/0.1% Tween-20 (Antibody Dilution Buffer). All other wells are replaced with 90 μL/well of rabbit anti-phospho-c-jun-Ser63 (Cell Signaling, 9261) diluted 1:250 in Antibody Dilution Buffer. After a further one hour, rabbit anti-phospho-c-jun-Ser63 is added directly to the solution in the Blank wells resulting in 1:250 dilution of this antibody. Plates were then placed on a slowly rotating platform at 4 degrees C. overnight. Wells were then washed thrice with 200 μL/well PBS/0.1% Tween-20. After addition of the third wash, the plates were placed on a slowly rotating platform for 15 minutes at room temperature. […]

phospho-(Ser63)-c-jun = assay: Rat In Vivo TNFα-Induced Kidney Phospho-c-Jun Assay; design: species or system Sprague-Dawley rats; details: Example D, 2 doses of 75 mg/kg oral (0 and 12 h), TNFα 2.5 ug/kg i.v. at 23 h, killed 1 h later, normalized to Group 2 as 100%, mean (standard deviation)
Experimental: Male Sprague-Dawley rats were obtained from Charles River and acclimatized for at least one week prior to use at age 6-8 weeks. Rats (n=8 per group) were administered Compound I-1 (Group 3; 75 mg/kg from a Microprecipitated Bulk Powder formulation resuspended in Klucel vehicle at 18.75 mg/mL) or vehicle alone (Groups 1 and 2) via oral gavage. Seven hours later, rats received an intravenous challenge of 2.5 μg/kg recombinant rat TNFα (Sigma) in saline (Groups 2 and 3) or saline alone (Group 1). After a further 1 h, the animals were killed by carbon dioxide inhalation. Kidneys were removed, rapidly frozen in liquid nitrogen and stored at −80 degrees until analysis.
Sample analysis was performed as described for mouse kidneys in Example a.
Male Sprague-Dawley rats were obtained from Charles River and acclimatized for at least one week prior to use at age 6-8 weeks. Rats (n=8 per group) were administered Compound I-1 (Groups 3 and 4; 75 mg/kg from a Microprecipitated Bulk Powder formulation resuspended in Klucel vehicle at 18.75 mg/mL) or vehicle alone (Groups 1 and 2) via oral gavage. Group 3 received an additional identical dose 12 hours later. Group 4 received an additional identical dose at 8 and 16 hours after the first dose. […]

JNK1 = JNK1 (Homo sapiens, UniProt P45983); assay: In vitro JNK1 Assay (TR-FRET, phosphorylation of GST-c-Jun); format: biochemical; details: 0.2 nM JNK1, 26.7 nM GST-c-Jun, 2 μM ATP
Experimental: Phosphorylation of GST-c-Jun protein (amino acid residues 1-79) was measured as JNK1 activity. […] The reaction buffer contained 50 mM HEPES, pH 7.0, 10 mM MgCl2, 1 mM DTT, 0.1 mM Na3 VO4 and 0.2 mg/mL BSA. After 30 min. incubation at room temperature, the reaction was terminated by adding buffer containing 8 mM EDTA and a polyclonal anti-phospho-c-Jun antibody (Cell Signaling #9261L), followed by an additional incubation of 30 min. at room temperature. […] Time-resolved Fluorescence Resonance Energy Transfer (TR-FRET) signals were measured 1 hr. later on the EnVision reader (Perkin Elmer). Compound potency was assessed at 10 serially diluted concentrations. Percentage of inhibition at each concentration was determined to generate an IC50 value for each compound.

JNK1, sequence (P45983 whole entry, species assumed, the tested form may be a part): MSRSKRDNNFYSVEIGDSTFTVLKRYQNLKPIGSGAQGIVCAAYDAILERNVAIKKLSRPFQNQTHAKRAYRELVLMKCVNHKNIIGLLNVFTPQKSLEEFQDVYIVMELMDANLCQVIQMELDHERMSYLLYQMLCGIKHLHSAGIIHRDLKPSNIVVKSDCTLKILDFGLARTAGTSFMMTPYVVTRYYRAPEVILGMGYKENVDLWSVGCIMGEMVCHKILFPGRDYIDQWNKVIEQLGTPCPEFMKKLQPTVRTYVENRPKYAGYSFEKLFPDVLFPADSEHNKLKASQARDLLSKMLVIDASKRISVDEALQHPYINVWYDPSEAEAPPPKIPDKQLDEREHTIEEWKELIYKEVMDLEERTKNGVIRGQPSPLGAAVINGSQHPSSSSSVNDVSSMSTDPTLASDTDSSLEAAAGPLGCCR

EC50 [1]: 4100 nM
IC50 (JNK1): 12 nM
SMILES: COC(=O)c1c(Cc2ccc(C(=O)N[C@@H]3[C@@H]4C[C@@H]5C[C@H]3C[C@@](O)(C5)C4)cc2)c(=O)c2cccnc2n1-c1ccccc1 [Compound I-1, rel-3-[4-((1S,2S,3R,5S,7S)-5-Hydroxy-adamantan-2-ylcarbamoyl)-benzyl]-4-oxo-1-phenyl-1,4-dihydro-[1,8]naphthyridine-2-carboxylic acid methyl ester]
Kidney phospho-c-jun (phospho-(Ser63)-c-jun): 59.6 (30.0) %
